In PubChem BioAssay (NCI):
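All cell lines were grown in 96-well plates and treated with compound for 48 hours. TGI marks complete inhibition of growth.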

What was measured:
Assay in all cases: growth of human tumour cells (NCI), 48 h
CAKI-1 renal = system: CAKI-1 renal
SW-620 colon = system: SW-620 colon
M14 melanoma = system: M14 melanoma
SNB-75 CNS = system: SNB-75 CNS
OVCAR-8 ovarian = system: OVCAR-8 ovarian
EKVX NSCLC = system: EKVX NSCLC
A498 renal = system: A498 renal
SK-OV-3 ovarian = system: SK-OV-3 ovarian
DU-145 prostate = system: DU-145 prostate
SR leukemia = system: SR leukemia
SF-539 CNS = system: SF-539 CNS
HCT-116 colon = system: HCT-116 colon
786-0 renal = system: 786-0 renal
A549 NSCLC = system: A549 NSCLC
MDA-MB-231 breast = system: MDA-MB-231 breast
MOLT-4 leukemia = system: MOLT-4 leukemia
ACHN renal = system: ACHN renal
LOX IMVI melanoma = system: LOX IMVI melanoma
OVCAR-4 ovarian = system: OVCAR-4 ovarian
RPMI-8226 leukemia = system: RPMI-8226 leukemia
RXF 393 renal = system: RXF 393 renal
OVCAR-5 ovarian = system: OVCAR-5 ovarian
HOP-62 NSCLC = system: HOP-62 NSCLC
PC-3 prostate = system: PC-3 prostate
KM12 colon = system: KM12 colon
HCT-15 colon = system: HCT-15 colon
SK-MEL-2 melanoma = system: SK-MEL-2 melanoma
U251 CNS = system: U251 CNS
NCI-H23 lung = system: NCI-H23 lung
IGROV1 ovarian = system: IGROV1 ovarian
UACC-62 melanoma = system: UACC-62 melanoma
CCRF-CEM leukemia = system: CCRF-CEM leukemia
SF-268 CNS = system: SF-268 CNS
OVCAR-3 ovarian = system: OVCAR-3 ovarian
HOP-92 NSCLC = system: HOP-92 NSCLC
SK-MEL-28 melanoma = system: SK-MEL-28 melanoma
K-562 leukemia = system: K-562 leukemia
MALME-3M melanoma = system: MALME-3M melanoma
HT29 colon = system: HT29 colon
T-47D breast = system: T-47D breast
NCI/ADR-RES ovarian = system: NCI/ADR-RES ovarian
HL-60(TB) leukemia = system: HL-60(TB) leukemia
NCI-H226 lung = system: NCI-H226 lung
UACC-257 melanoma = system: UACC-257 melanoma
COLO 205 colon = system: COLO 205 colon
MDA-N = system: MDA-N
SNB-19 CNS = system: SNB-19 CNS
SK-MEL-5 melanoma = system: SK-MEL-5 melanoma
HS 578T breast = system: HS 578T breast
HCC-2998 colon = system: HCC-2998 colon
SN12C renal = system: SN12C renal
NCI-H460 lung = system: NCI-H460 lung
BT-549 breast = system: BT-549 breast
MCF7 breast = system: MCF7 breast
MDA-MB-435 = system: MDA-MB-435

Measured: TGI

NC(=O)c1cc2ccccc2oc1=Nc1ccccc1
> 100 µM: CAKI-1 renal | SW-620 colon | M14 melanoma | SNB-75 CNS | OVCAR-8 ovarian | EKVX NSCLC | A498 renal | SK-OV-3 ovarian | DU-145 prostate | SR leukemia | SF-539 CNS | HCT-116 colon | 786-0 renal | A549 NSCLC | MDA-MB-231 breast | MOLT-4 leukemia | ACHN renal | LOX IMVI melanoma | OVCAR-4 ovarian | RPMI-8226 leukemia | RXF 393 renal | OVCAR-5 ovarian | HOP-62 NSCLC | PC-3 prostate | KM12 colon | HCT-15 colon | SK-MEL-2 melanoma | U251 CNS | NCI-H23 lung | IGROV1 ovarian | UACC-62 melanoma | CCRF-CEM leukemia | SF-268 CNS | OVCAR-3 ovarian | HOP-92 NSCLC | SK-MEL-28 melanoma | K-562 leukemia | MALME-3M melanoma | HT29 colon | T-47D breast | NCI/ADR-RES ovarian | HL-60(TB) leukemia | NCI-H226 lung | UACC-257 melanoma | COLO 205 colon | MDA-N | SNB-19 CNS | SK-MEL-5 melanoma | HS 578T breast | HCC-2998 colon | SN12C renal | NCI-H460 lung | BT-549 breast | MCF7 breast | MDA-MB-435
